Consider seven substances from paper PMC2553845, “A Specificity Map for the PDZ Domain Family” (PLoS Biology, 2008).

The target in assay [1] is T1, first PDZ domain of ZO-1 (TJP1–1) (Homo sapiens, UniProt Q07157).
T1 construct: the first PDZ domain of ZO-1 (TJP1–1); GST; made in house; host or cells: E. coli
T1 sequence (Q07157 23-110 limits assumed): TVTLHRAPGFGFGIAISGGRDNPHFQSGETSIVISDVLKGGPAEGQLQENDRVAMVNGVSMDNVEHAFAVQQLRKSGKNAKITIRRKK
In words: biochemical. The assay is classed as binding.

A further assay has as its system SCRIB PDZ domains. The assay can be described thus: Competition ELISA, binding to the SCRIB PDZ domains. More on the design: species or system Human. The protocol:
(§1) Peptides were synthesized with acetylated C termini. The binding affinities of peptides for PDZ domains were determined as 50% inhibition concentration (IC50) values using competition ELISAs, as described. The IC50 value was defined as the concentration of peptide that blocked 50% of PDZ domain binding to immobilized peptide.

A further assay has as its target T2, SCRIB-1 (Homo sapiens, UniProt Q14160).
T2 construct: synthetic peptide that targets SCRIB PDZ domains 1, 2, and 3; GST; made in house; host or cells: E. coli
In words: Competition ELISA, peptide affinity for PDZ domain. In kind it is binding. The procedure:
as §1
(In general: In an ELISA, binding on a coated surface is turned into a signal by an enzyme label.)

The next assay concerns the target T3, SCRIB-2 (Homo sapiens, UniProt Q14160).
T3 construct: synthetic peptide that targets SCRIB PDZ domains 1, 2, and 3; GST; made in house; host or cells: E. coli
T3 sequence (Q14160 862-950 limits assumed): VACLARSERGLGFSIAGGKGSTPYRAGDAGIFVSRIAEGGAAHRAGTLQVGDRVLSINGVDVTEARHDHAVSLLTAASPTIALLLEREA
In words: Competition ELISA, peptide affinity for PDZ domain. The assay is classed as binding. The procedure:
as §1

The next assay deals with T4, SCRIB-3 (Homo sapiens, UniProt Q14160).
T4 construct: synthetic peptide that targets SCRIB PDZ domains 1, 2, and 3; GST; made in house; host or cells: E. coli
T4 sequence (Q14160 1004-1093 limits assumed): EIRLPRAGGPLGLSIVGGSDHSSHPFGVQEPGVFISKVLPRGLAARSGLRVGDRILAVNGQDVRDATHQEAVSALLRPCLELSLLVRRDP
The assay can be described thus: Competition ELISA, peptide affinity for PDZ domain. The assay is classed as binding. The protocol: as §1

The subject of assay [2] is Naive Crtam−/− CD4 T cells. The assay can be described thus: T cell polarization, Talin staining. The assay is classed as cell-based. The following applies: Crtam−/− CD4 T cells electroporated with Crtam plasmid; peptide 1.0 μM; restimulated after 6 h, fixed 14 h later. The protocol:
(§2) Naïve Crtam^−/− CD4 T cells were purified and activated with plate-bound anti-CD3 and anti-CD28, as described. On day 4, T cells were electroporated with 4 μg of pIRES_GFP or pIRES_GFP/Crtam plasmid DNA by Amaxa Nucleofector (program X-01). Synthetic peptides (1.0 μM) were added into the cultures, and after 6 h, transfected cells were restimulated at 1 × 10^6 cells/ml with plate-bound antibodies and were fixed 14 h later for Talin staining. After 42 h, [^3H]-thymidine (1 μCi/well) was added, and the plates were harvested 8 h later.

Assay [3] relates to Naive Crtam−/− CD4 T cells. The assay can be described thus: T cell proliferation, [3H]-thymidine incorporation. The assay is classed as cell-based. Particulars: Crtam−/− CD4 T cells electroporated with Crtam plasmid; peptide 1.0 μM; [3H]-thymidine added after 42 h, harvested 8 h later; representative of three independent experiments. The procedure:
as §2
On the technique in general: Dividing cells build labelled thymidine or BrdU into new DNA.

Entries after “also recorded” stand apart in the source; their conditions may differ. Where two headings read alike, the source gives them in different places. Where no end group is shown, it is not given here.

T2 sequence (Q14160 728-815 limits assumed): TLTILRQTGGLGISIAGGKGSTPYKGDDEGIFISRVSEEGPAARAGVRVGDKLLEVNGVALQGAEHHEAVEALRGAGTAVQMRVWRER

On to “Ac-PPRRHRETYV (N-terminus assumed) [peptide 12]”, for which, in assay [1], the “Interaction with the ZO-1 PDZ domain (TJP1–1) (in words)” value is “bound to both”. In addition, the “Interaction with the SCRIB PDZ domains (in words)” value with SCRIB PDZ domains was “bound to both”.
With Ac-KMERTIESEV [compound 10], the “Interaction with the SCRIB PDZ domains (in words)” value in the assay with SCRIB PDZ domains is “interact with the SCRIB PDZ domains”.
What is called IC50 is the concentration that inhibits the measured activity by half. Read a low IC50 as inhibition by little substance. As for Ac-KMARAARSKV-OH [peptide 11], the IC50 (on SCRIB-1; on SCRIB-2; at SCRIB-3; in assay [1]) was over 500 µM throughout. The “Interaction with the SCRIB PDZ domains (in words)” value in the assay on SCRIB PDZ domains is listed as “does not”.
“Ac-RRRKRKRTYL (N-terminus assumed) [peptide 13]”: in assay [1], the “Interaction with the ZO-1 PDZ domain (TJP1–1) (in words)” value is “interacted only with this domain”. The “Interaction with the SCRIB PDZ domains (in words)” value with SCRIB PDZ domains is “interacted only with this domain”.
As for “Ac-RQIKIWFQNRRMKWKKRSWFETWV (N-terminus assumed) [peptide 14]”, the “Effect on late phase of T cell polarization (Talin staining)” value in assay [2] was “causes loss of late-phase T cell polarization”. Further, in assay [3], the “Effect on T cell proliferation ([3H]-thymidine incorporation)” value was “triggers T cell proliferation; also recorded: reverses the hypoproliferative effects of Crtam”. In addition, in the assay on SCRIB PDZ domains (in vitro, synthesized peptides), the “Interaction with the SCRIB PDZ domains (in words)” value was “binds to the SCRIB PDZ domains with high affinity”.
The like results for “Ac-RQIKIWFQNRRMKWKKRSWFEAWA (N-terminus assumed) [peptide 15]” were, in that order, “has no effect”, “has no effect” and “nonbinding”.
As to Ac-HMARRVESEV [compound 9], the “Interaction with the SCRIB PDZ domains (in words)” value with SCRIB PDZ domains is given as “interact with the SCRIB PDZ domains”.
